Patent publication US5179091A, “Chalcones” (Adir et Compagnie, priority 1990, dated 1993)

What was measured:
[1] = Inhibition of formation of conjugated dienes formed by free-radical activity; assay type: biochemical; settings: 10^-5 M concentration, linoleic acid emulsion, Fe2+/Fe3+ mixture
Text: This methodology consists in generating free OH- radicals in an emulsion of linoleic acid, by means of a system consisting of an Fe^2+ /Fe^3+ mixture.

[2] = system: native LDL; experiment: Level of LDL oxidation by Cu++, oxidation products assayed by FPLC; assay type: biochemical; settings: relative to probucol (i=1)
Procedure: Under these conditions, free radicals are generated by Cu++ in a medium containing native LDL in the presence or absence of the test compounds. The reaction is stopped by adding 2,6-di-tert-butyl-4-methylphenol and EDTA to the reaction medium and the oxidation products are assayed by FPLC.
D being the height of the peak of fraction 27/28 of the chromatogram; the sum of the oxidized fractions 27/28 and 31/32 is equal to 100.

[3] = system: rat brain homogenates; experiment: Inhibition of spontaneous lipid peroxidation (thiobarbituric acid reacting substances); assay type: biochemical; settings: concentration of 10^-5 M, 60 minutes at 37° C.
Procedure: A study of the capacity of the compounds of the invention to trap free OH. radicals was studied on rat brain homogenates on the one hand with respect to the spontaneous peroxidation of lipids, The rat brain homogenates are placed in the presence or absence of the test compounds for 60 minutes at 37° C. The intensity of lipid peroxidation in the presence and in the absence of the compounds of the invention is determined by the substances reacting with thiobarbituric acid, expressed in mmol of malondialdehyde, by a method derived from that of […], Biochem. Med. 1976, 15, 212-216).

[4] = biological target: T1, lipoxygenase (Homo sapiens, UniProt P09917); experiment: Inhibition of lipoxygenase activity, LTB4 measured by radioimmunoassay; assay type: cell-based; settings: concentration of 10^-5 M, washed human polynuclear cells activated by calcium; read-out: inhibition of lipoxygenase action (LTB4 produced)
T1 construct: endogenous in cells
T1 sequence (P09917 1-674): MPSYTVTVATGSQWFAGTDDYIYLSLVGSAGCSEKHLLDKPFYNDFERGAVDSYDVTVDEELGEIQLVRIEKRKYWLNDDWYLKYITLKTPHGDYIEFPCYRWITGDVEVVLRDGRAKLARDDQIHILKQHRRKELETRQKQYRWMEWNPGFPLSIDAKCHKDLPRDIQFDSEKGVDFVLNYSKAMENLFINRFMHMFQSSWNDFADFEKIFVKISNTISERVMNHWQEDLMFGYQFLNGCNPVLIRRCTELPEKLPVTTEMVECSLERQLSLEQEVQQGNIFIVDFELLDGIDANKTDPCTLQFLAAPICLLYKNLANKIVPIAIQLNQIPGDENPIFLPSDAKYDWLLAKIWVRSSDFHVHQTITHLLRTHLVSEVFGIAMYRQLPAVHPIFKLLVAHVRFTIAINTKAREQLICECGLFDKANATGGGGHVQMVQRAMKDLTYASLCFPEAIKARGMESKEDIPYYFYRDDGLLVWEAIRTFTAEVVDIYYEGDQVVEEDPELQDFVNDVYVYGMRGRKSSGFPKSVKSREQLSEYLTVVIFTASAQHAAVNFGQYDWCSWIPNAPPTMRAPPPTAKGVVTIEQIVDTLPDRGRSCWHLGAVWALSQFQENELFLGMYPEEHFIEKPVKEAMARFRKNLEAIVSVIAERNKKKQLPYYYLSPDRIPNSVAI
Procedure: The lipoxygenase activity is measured using washed human polynuclear cells, in the presence and absence of the claimed compounds after activation by calcium (A 23/87). The leukotriene B4 (LTB4) produced is measured by radioimmunoassay (Gresele, P. et al. Biochem. Biophys. Res. Comm. 1986, 137, 334-342).

[5] = system: rat brain homogenates; experiment: Inhibition of lipid peroxidation induced by the Fe++/ascorbate system; assay type: biochemical; settings: concentration of 10^-5 M, Fe++/ascorbate (10 μM/250 μM)
Procedure: A study of the capacity of the compounds of the invention to trap free OH. radicals was studied on rat brain homogenates on the other hand with respect to peroxidation induced by the Fe++/ascorbate (10 μM/250 μM) system. The rat brain homogenates are placed in the presence or absence of the test compounds for 60 minutes at 37° C. The intensity of lipid peroxidation in the presence and in the absence of the compounds of the invention is determined by the substances reacting with thiobarbituric acid, expressed in mmol of malondialdehyde, by a method derived from that of […], Biochem. Med. 1976, 15, 212-216). The methodology is identical, with the exception of the addition to the homogenate of the Fe++/ascorbate radical-inducing system.

[6] = system: Human red cells; experiment: AAPH-induced hemolysis; assay type: cell-based; settings: Erythrocyte, 0.5 h, concentration of 10^-5 M, 30 minutes at 37° C.

Q: For `CC(C)(C)c1cc(C=CC(=O)c2ccc3[nH]c(=O)oc3c2)cc(C(C)(C)C)c1O` [Example 6, 6-(3',540-di-tert-butyl-4'-hydroxycinnamoyl)benzoxazolinone], which “inhibition of diene formation” value [1] is on record?
A: Its value is “approximately 75%”.

Q: For `CC1C(=Cc2cc(C(C)(C)C)c(O)c(C(C)(C)C)c2)C(=O)c2cc3oc(=O)n(C)c3cc21` (stereo not drawn) [Example 27, 2,3-dihydro-3,5-dimethyl-6-(3',5'-di-tert-butyl-4'-hydroxybenzylidene)cyclopenta[f]benzoxazone-2,7-dione], which “LDL oxidation: oxidized fraction 27/28 of the chromatogram” value [2] is on record?
A: The value was “oxidized fraction 27/28 disappears”.

Q: Which “LDL oxidation: oxidized fraction 27/28 of the chromatogram” value [2] does the source give for `CC(C)(C)c1cc(C=C2C(=O)c3cc4oc(=O)[nH]c4cc3C2c2ccccc2)cc(C(C)(C)C)c1O` (stereo not drawn) [Example 35, 2,3-dihydro-5-phenyl-6-(3',5'-di-tert-butyl-4'-hydroxybenzylidene)cyclopenta[f]benzoxazole-2,7-dione] here?
A: Its value is “oxidized fraction 27/28 disappears”.

Q: What about the “inhibition of spontaneous peroxidation” value [3] of the same compound?
A: The value was “approximately 50%”.

Q: What about the inhibition at 10 µM [4] of the same compound?
A: Its inhibition at 10 µM is roughly 60%.

Q: And the “inhibition of induced peroxidation” value [5]?
A: The value was roughly 50%.

Q: With `CC1CC(=Cc2cc(C(C)(C)C)c(O)c(C(C)(C)C)c2)C(=O)c2cc3c(cc21)oc(=O)n3C` (stereo not drawn) [Example 28, 2,3-dihydro-3,8-dimethyl-6-(3',5'-di-tert-butyl-4'-hydroxybenzylidene)cyclohexa[f]benzoxazone-2,5-dione] as the compound, how does the “LDL oxidation: oxidized fraction 27/28 of the chromatogram” value [2] read?
A: The value was “oxidized fraction 27/28 disappears”.

Q: Which results are given for vitamin E [reference compound]?
A: inhibition of spontaneous peroxidation [3]: 18%; inhibition of induced peroxidation [5]: 6%

Q: With `Cn1c(=O)oc2cc3c(cc21)CC(=Cc1cc(C(C)(C)C)c(O)c(C(C)(C)C)c1)C3=O` [Example 40, 2,3-dihydro-3-methyl-2,7-dioxo-6-(3',5'-di-tert-butyl-4'-hydroxybenzylidene)cyclopenta[f]benzoxazole-2,7-dione] as the compound, how does the “inhibition of spontaneous peroxidation” value [3] read?
A: The value was “approximately 50%”.

Q: With `Cn1c(=O)sc2cc(C(=O)C=Cc3cc(C(C)(C)C)c(O)c(C(C)(C)C)c3)ccc21` [Example 4, 6-(3',5'-di-tert-butyl-4'-hydroxycinnamoyl)-3-methylbenzothiazolinone] as the compound, how does the “inhibition of induced peroxidation” value [5] read?
A: The value was roughly 30%.

Q: For `CC1C(=Cc2cc(C(C)(C)C)c(O)c(C(C)(C)C)c2)C(=O)c2cc3c(cc21)oc(=O)n3C` (stereo not drawn) [Example 29, 2,3-dihydro-3,7-dimethyl-6-(3',5'-di-tert-butyl-4'-hydroxybenzylidene)cyclopenta[f]benzoxazole-2,5-dione], which “LDL oxidation: oxidized fraction 27/28 of the chromatogram” value [2] is on record?
A: The value was “oxidized fraction 27/28 disappears”.

Q: For `CC(C)(Sc1cc(C(C)(C)C)c(O)c(C(C)(C)C)c1)Sc1cc(C(C)(C)C)c(O)c(C(C)(C)C)c1` [probucol, reference compound], which “inhibition of spontaneous peroxidation” value [3] is on record?
A: The value was 37%.

Q: And the inhibition at 10 µM [4]?
A: Its inhibition at 10 µM is 44%.

Q: And the inhibition at 10 µM [6]?
A: The inhibition at 10 µM was 48%.

Q: And the “inhibition of induced peroxidation” value [5]?
A: The value was 27%.

Q: With `CC1C(=Cc2cc(C(C)(C)C)c(O)c(C(C)(C)C)c2)C(=O)c2cc3oc(=O)[nH]c3cc21` (stereo not drawn) [Example 33, 2,3-dihydro-5-methyl-6-(3',5'-di-tert-butyl-4'-hydroxybenzylidene)cyclopenta[f]benzoxa-zone-2,6-dione] as the compound, how does the “LDL oxidation: oxidized fraction 27/28 of the chromatogram” value [2] read?
A: Its value is “oxidized fraction 27/28 disappears”.

Q: What about the “inhibition of spontaneous peroxidation” value [3] of the same compound?
A: Its value is “approximately 50%”.

Q: What about the “inhibition of induced peroxidation” value [5] of the same compound?
A: The value was roughly 50%.

Q: With `Cn1c(=O)oc2ccc(C(=O)C=Cc3cc(C(C)(C)C)c(O)c(C(C)(C)C)c3)cc21` [Example 1, 5-(3',5'-di-tert-butyl-4'-hydroxycinnamo-yl)-3-methylbenzoxazolinone] as the compound, how does the inhibition at 10 µM [4] read?
A: Its inhibition at 10 µM is roughly 80%.

Q: Which inhibition at 10 µM [4] does the source give for `Cn1c(=O)oc2cc(C(=O)C=Cc3cc(C(C)(C)C)c(O)c(C(C)(C)C)c3)ccc21` [Example 5, 6-(3',5'-di-tert-butyl-4'-hydroxycinnamoyl)-3-methylbenzoxazolinone] here?
A: The inhibition at 10 µM was roughly 60%.

Q: What does the source list for `Cn1c(=O)oc2cc3c(cc21)C(c1ccccc1)C(=Cc1cc(C(C)(C)C)c(O)c(C(C)(C)C)c1)C3=O` (stereo not drawn) [Example 36, 2,3-dihydro-3-methyl-5-phenyl-6-(3',5'-di-tert-butyl-4'-hydroxybenzylidene)cyclopenta[f]benzoxazole-2,7-dione]?
A: LDL oxidation: oxidized fraction 27/28 of the chromatogram [2]: oxidized fraction 27/28 disappears; inhibition of spontaneous peroxidation [3]: approximately 50%; inhibition of diene formation [1]: approximately 50%; inhibition at 10 µM [4]: ~60%; inhibition of induced peroxidation [5]: ~50%

Q: Which “inhibition of diene formation” value [1] does the source give for `CC(C)(C)c1cc(C=CC(=O)c2ccc3c(c2)OCC(=O)N3)cc(C(C)(C)C)c1O` [Example 7, 7-(3',54- -di-tert-butyl-4'-hydroxycinnamoyl)-1,4-benzoxazin-3-one] here?
A: Its value is “approximately 75%”.
